Experiment: Distribution of radioactivity in tissues of female rats after intravenous administration
Assay type: in vivo
Conditions: for Distribution of radioactivity in brain / Distribution of radioactivity in thyroid: no unit in table; for Distribution of radioactivity in brain: b28 gives percent dose/g; for Distribution of radioactivity in thyroid: percent
Description: The distribution of radioactivity in tissues of female rats at 5 minutes, 15 minutes, 30 minutes and 60 minutes after intravenous administration of the iodinated compound is shown in the following table. The level of accumulation of radioactivity in the brain after injection of this agent was a significant 1.65 percent dose/g at 5 minutes but the blood levels were also high resulting in blood ratios of 1.6/1 at 5 minutes.

[1] = 1 h (head printed 1 HT/R), intravenous

SMILES: CO[C@@H]1O[C@H](COC(C)=O)[C@@H](OC(C)=O)[C@@H](OC(C)=O)[C@@H]1/C=C/[125I] [methyl-2-deoxy-2-(E)-[^125 I]-iodovinyl-2,4,6-O-triacetyl-β-D-altropyranoside]
- Distribution of radioactivity in brain (5 min, intravenous): 1.6525
- Distribution of radioactivity in thyroid (5 min, intravenous): 20.6441
- blood levels (5 minutes, intravenous, in words): high
- Distribution of radioactivity in thyroid (15 min, intravenous): 18.9149
- Distribution of radioactivity in thyroid (30 min, intravenous): 25.7085
- Distribution of radioactivity in brain [1]: 0.7237
- Distribution of radioactivity in thyroid [1]: 33.4920
- brain retention compared with the peak uptake at 5 minutes (60 minutes vs 5 minutes, intravenous): 50%
- accumulation of activity in the thyroid (60 minutes, intravenous): 33.5%
- stability to in vivo deiodination (from thyroid accumulation at 60 minutes, in words): demonstrated the stability of this agent to in vivo deiodination
- retention in the brain (in words) (up to 60 minutes, intravenous): prolonged retention in the brain

— patent publication US4826966A, “Radioiodinated branched carbohydrates” (The United States of America as represented by the United …, priority 1988, dated 1989)
